Measured values: PubChem BioAssay AID2305 (GlaxoSmithKline (GSK), 2010)

Tested on: P. falciparum 3D7 growth, pLDH absorbance
Assay: P. falciparum 3D7 growth inhibition, dose response, strain 3D7 (AID 2305)

SMILES | IC50 [nM]
COc1ccc(-c2nc(NC(=O)Cc3ccc(OC)c(OC)c3)sc2C)cc1 | 1160
Cc1ccc2nc(C)cc(NN=Cc3ccc([N+](=O)[O-])o3)c2c1 | 750
CC(C)c1ccc(CN2CCC(CNC(=O)c3cc(-c4ccc(N(C)C)cc4)cs3)C2)cc1 (stereo not drawn) | 1250
CCCCCCC(C)c1cc(OCCN(CC)CC)c2c(c1)OC(C)(C)C=C2c1ccncc1 (stereo not drawn) | 1260
COc1ccc(-c2ccc(NC(=O)c3cccc(Cl)c3)c(F)c2)cc1CNC(C)C | 890
O=C(Nc1ccc(Oc2ccccc2)cc1)N1CCC(CN2CCC(c3c[nH]c4ccccc34)CC2)CC1 | 610
O=C(/C=C/c1ccc(Cl)c(Cl)c1)N1CCC(CCN2CCC(c3c[nH]c4ccccc34)CC2)CC1 | 600
CCCCCCCn1c(=O)c(C(=O)Nc2c(C)cccc2C)c(O)c2ccccc21 | 910
CC(=O)Nc1cccc(C(=O)Nc2cccc(-c3ccc(-c4nc5c(C)cccc5[nH]4)cc3)c2)c1 | 910
CC(C)c1cn2c3c(cc(C(=O)N[C@@H](Cc4ccccc4)[C@H](O)CNC4CCCCC4)cc13)N(C)S(=O)(=O)CC2 | 30
Cc1cc(N[C@@H](Cc2ccccc2)C(=O)NCc2cccc(F)c2)nc(NCCOc2ccccc2)n1 | 790
O=C(/C=C/c1cccs1)NC1CCC(CN2CCC(c3c[nH]c4ccccc34)CC2)CC1 (stereo not drawn) | 1050
COc1ccc(N2CCN(C(CNC(=O)C3CCCCC3)c3ccc4c(c3)OCO4)CC2)cc1 (stereo not drawn) | 570
O=C(Nc1cc(Cl)cc(Cl)c1)c1cc(Cl)c(=O)n(Cc2ccc(Cl)cc2)c1 | 860
O=C(NCCCN(Cc1ccc(F)cc1)c1ccccn1)C(c1cc2ccccc2o1)N1CCN(C(c2ccccc2)c2ccccc2)CC1 (stereo not drawn) | 840
Cc1cc(NCCC(=O)Nc2ccccc2)nc(NCCc2ccc(F)cc2)n1 | 1130
CCOc1ccc(C(=O)Nc2cc(Br)c3c(c2)CNCC3)cc1Cl | 1040
c1ccc2c3c(ccc2c1)Sc1c(ccc2ccccc12)N3 | 1070
CCC(C)NS(=O)(=O)c1ccc2nc(Nc3ccc(C)c(Cl)c3)n(C(C)C(C)C)c2c1 (stereo not drawn) | 380
COc1ccc(CNCc2ccc(-c3cccc(-c4nc5c(C)cccc5[nH]4)c3)cc2)cc1 | 130
Cc1cc(C(F)(F)F)cc(-n2ncc(-c3ccc(C(=O)NCc4ccccc4N)cc3)c2N)n1 | 450
Cc1[nH]c(C)c(-c2ccc(Oc3ccc(C(F)(F)F)cc3)cc2)c(=O)c1Br | 210
Cc1cc(I)ccc1Nc1nc2nonc2nc1Nc1ccc(I)cc1C | 510
CN(C1CCC(NC(=O)/C=C/c2ccccc2)CC1)C1CC2(CCN(C(=O)OC(C)(C)C)CC2)c2ccccc21 (stereo not drawn) | 820

SMILES | IC50 [nM]
O=C(/C=C/c1ccc(Cl)c(Cl)c1)NCCCCCN1CCCC(c2c[nH]c3ccccc23)C1 (stereo not drawn) | 810
O=C(Nc1cccc(CN2CCCN(Cc3cccc(O)c3)CC2)c1)c1ccc(-c2ccccc2)cc1 | 640
Cc1ccc(-c2nnc3c4ccccc4c(C)nn23)cc1S(=O)(=O)N1CCN(CCO)CC1 | 670
CC1CN(Cc2ccc(-c3ccc(-c4nc5ccccc5[nH]4)cc3)cc2)CC(C)O1 (stereo not drawn) | 520
COc1ccc(CCN(C)CCOc2ccc(NC(=O)c3cc(SC)cc4c(=O)c5ccccc5[nH]c34)cc2)cc1OC | 1400
CCN(CC)CCCN(Cc1ccc(-c2ccc(C(F)(F)F)cc2)cc1)C(=O)Cn1c(SCc2cccc(F)c2F)cc(=O)c2ccccc21 | 1320
CC(C)N1CCN(C(CN2CCN(CCCOc3ccc(-c4ccccc4)cc3)CC2)c2ccc(F)cc2)CC1 (stereo not drawn) | 680
CC1CCCN(Cc2c(O)ccc3c(=O)c(-c4nc5ccccc5s4)c(N)oc23)C1 (stereo not drawn) | 140
CC[C@H](C)CNC(=O)c1ccnc(-c2ccc(CNCCCc3ccccc3)cc2)c1 | 1230
Cc1cc(Nc2ncc3c(n2)N(C2CCC2)CC3)ccc1N1CCN(C)CC1 | 1190
COc1ccc(C(=O)CCC(=O)N(CCSC(C)(C)C)Cc2ccc(-c3ccc(CNCCc4ccc(S(C)(=O)=O)cc4)cn3)cc2)cc1F | 630
CC(C)c1nc2c(N)nc(N)nc2nc1N | 1310
CC1CCC(NC(=O)c2nn(-c3ccc(Cl)cc3)c(=O)c3ccccc23)CC1 (stereo not drawn) | 1080
COc1cccc(CNC[C@@H](O)[C@H](Cc2ccccc2)NC(=O)c2cc(C3CCCC3)cc(N3CCCCS3(=O)=O)c2)c1 | 600
CCCCN(CCCC)CCOc1cc2c(cc1OC)CCN2C(=O)/C=C/c1ccccc1Cl | 1180
COc1ccc(Nc2nc(N)c3cc(OC)c(OC)cc3n2)cc1OC | 730
Cc1cc(N2CC=CCC2)nc(/N=C(\N)Nc2ccc(Br)cc2)n1 | 690
COc1ccccc1NC(=O)OC(COc1ccc(N)cc1)CN1CC=C(c2ccccc2)CC1 (stereo not drawn) | 1040
COc1ccc(CNC(=O)c2cnc3c(O)cccc3c2Nc2cccc(NC(=O)c3ccc(F)cc3)c2)cc1 | 1000
O=C(C=Cc1ccc(Cl)c(Cl)c1)NCCCCCN1CCC(c2[nH]nc3ccccc23)CC1 | 640
NC(N)=Nc1ccc(CCc2ccc(N=C(N)N)cc2)cc1 | 290
COc1ccc2nc(-c3ccccc3)cc(NN=Cc3ccc([N+](=O)[O-])o3)c2c1 | 200
COc1ccc(CCNCC(O)COc2nccc3c(S(=O)(=O)N4CCCNCC4)cccc23)cc1OC (stereo not drawn) | 270
Cc1cc(Cl)c(Cl)cc1NC(=O)Nc1cccc(C(F)(F)F)c1 | 870
